Measured values reported in publication PMC11671597, “The anticancer effect of metformin targets VDAC1 via ER-mitochondria interactions-mediated autophagy in HCC” (Experimental & Molecular Medicine, 2024).

Target: voltage-dependent anion channel 1 (VDAC1) (Homo sapiens, UniProt P21796)
Assay: microscale thermophoresis (MST); supported by dose-dependent DARTS in HepG2 mitochondrial lysate (EC50 […]) and loss of protection in D9A/E203A mutants
Assay type: binding

Chain of voltage-dependent anion channel 1 (VDAC1) (P21796 2-283): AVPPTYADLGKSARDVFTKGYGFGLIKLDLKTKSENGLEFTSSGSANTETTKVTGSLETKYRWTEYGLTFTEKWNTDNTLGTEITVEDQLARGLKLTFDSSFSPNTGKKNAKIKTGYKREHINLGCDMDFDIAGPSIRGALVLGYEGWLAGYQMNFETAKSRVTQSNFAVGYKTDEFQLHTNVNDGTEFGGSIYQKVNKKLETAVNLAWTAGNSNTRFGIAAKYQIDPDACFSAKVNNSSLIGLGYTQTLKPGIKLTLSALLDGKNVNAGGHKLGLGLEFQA

Question: With `CN(C)C(=N)N=C(N)N` [Metformin] as the compound, how does the Kd read?
Answer: Its Kd is 204 µM.
